Activity and IC50 data for 13 molecules are collected here from ChEMBL document CHEMBL3779853, “Target β-catenin/CD44/Nanog axis in colon cancer cells by certain N'-(2-oxoindolin-3-ylidene)-2-(benzyloxy)benzohydrazides” (Bioorg Med Chem Lett, 2016).

Assay [1] is described as follows: Cell cycle arrest in high CD44 expressing human […] cells assessed as accumulation at M phase at 5 to 10 uM. Type of assay: functional, cell-based.
Assay [2] has as its system LoVo. The assay can be described thus: Downregulation of Sox2 expression in human LoVo cells at 10 uM after 48 hrs by RT-PCR analysis. Type of assay: functional, cell-based.
Assay [3] is described as follows: Inhibition of Wnt/beta catenin pathway assessed as downregulation of CD44-mediated Nanog expression in human LoVo cells at 2.5 to 10 uM after 48 hrs by RT-PCR analysis. Type of assay: cell-based.
The nature of assay [4]: Cell cycle arrest in low CD44 expressing human […] cells assessed as accumulation at M phase at 5 to 10 uM. Type of assay: functional, cell-based.
A short description of assay [5]: Inhibition of Wnt/beta catenin pathway (unknown origin) in human LoVo cells transfected with TCF/LEF reporter plasmid assessed as GFP expression at 2.5 uM after 48 hrs by flow cytometric analysis (reference value: 3.7%). Type of assay: cell-based. More on the design: scale not given: the % may be the effect or the level left. (In flow cytometry, cells or beads pass a laser one at a time.)

Assay [6] can be described thus: Cell cycle arrest in high CD44 expressing human […] cells assessed as accumulation at S phase at 5 to 10 uM. Type of assay: functional, cell-based.
Assay [7] is described as follows: Cell cycle arrest in low CD44 expressing human […] cells assessed as accumulation at S phase at 5 to 10 uM. Type of assay: functional, cell-based.
Assay [8] can be described thus: Inhibition of Wnt/beta catenin pathway (unknown origin) in human LoVo cells transfected with TCF/LEF reporter plasmid assessed as GFP expression at 10 uM after 48 hrs by flow cytometric analysis (reference value: 3.7%). Type of assay: cell-based. On the set-up: scale not given: the % may be the effect or the level left.
Assay [9] in a line: Cell cycle arrest in low CD44 expressing human […] cells assessed as accumulation at G2 phase at 5 to 10 uM. Type of assay: functional, cell-based.
Assay [10] has as its system LoVo. The assay can be described thus: Downregulation of Oct-4 expression in human LoVo cells at 10 uM after 48 hrs by RT-PCR analysis. Type of assay: functional, cell-based.
The subject of another assay is HT-29. The assay can be described thus: Cytotoxicity against low CD44 expressing human HT-29 cells after 48 hrs by WST-1 assay. Type of assay: functional, cell-based. In general terms: Tetrazolium dyes change colour on reduction, which living cells bring about.
The nature of assay [11]: Cell cycle arrest in high CD44 expressing human […] cells assessed as accumulation at G2 phase at 5 to 10 uM. Type of assay: functional, cell-based.
The nature of assay [12]: Inhibition of Wnt/beta catenin pathway (unknown origin) in human LoVo cells transfected with TCF/LEF reporter plasmid assessed as GFP expression at 5 uM after 48 hrs by flow cytometric analysis (reference value: 3.7%). Type of assay: cell-based. More on the design: scale not given: the % may be the effect or the level left.
The subject of assay [13] is LoVo. In words: Cytotoxicity against high CD44 expressing human LoVo cells after 48 hrs by WST-1 assay. Type of assay: functional, cell-based.
In the next assay the target is T1, TCF4-CTNNB1 complex (Homo sapiens, UniProt P35222+Q9NQB0).
T1 sequence (P35222 whole entry): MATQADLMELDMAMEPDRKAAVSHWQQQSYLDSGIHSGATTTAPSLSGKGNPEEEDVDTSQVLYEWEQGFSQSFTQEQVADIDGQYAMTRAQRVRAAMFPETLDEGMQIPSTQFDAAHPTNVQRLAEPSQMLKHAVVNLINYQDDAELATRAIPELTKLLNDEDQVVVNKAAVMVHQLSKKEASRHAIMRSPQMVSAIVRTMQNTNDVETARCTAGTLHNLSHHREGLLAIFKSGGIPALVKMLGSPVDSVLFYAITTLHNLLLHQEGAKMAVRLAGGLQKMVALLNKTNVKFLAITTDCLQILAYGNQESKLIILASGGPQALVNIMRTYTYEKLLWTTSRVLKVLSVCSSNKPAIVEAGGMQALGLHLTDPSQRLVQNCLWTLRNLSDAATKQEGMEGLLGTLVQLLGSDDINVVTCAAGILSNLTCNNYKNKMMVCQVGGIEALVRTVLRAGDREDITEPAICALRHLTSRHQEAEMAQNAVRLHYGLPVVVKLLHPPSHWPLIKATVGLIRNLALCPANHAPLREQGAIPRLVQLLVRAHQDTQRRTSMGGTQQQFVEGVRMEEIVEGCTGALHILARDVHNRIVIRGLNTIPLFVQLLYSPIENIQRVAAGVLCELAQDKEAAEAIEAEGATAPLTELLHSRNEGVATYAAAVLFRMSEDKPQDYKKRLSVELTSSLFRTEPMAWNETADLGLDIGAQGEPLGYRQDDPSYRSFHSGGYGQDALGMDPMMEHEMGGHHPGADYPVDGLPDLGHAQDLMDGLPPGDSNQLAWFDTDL
T1 sequence (P15884 whole entry): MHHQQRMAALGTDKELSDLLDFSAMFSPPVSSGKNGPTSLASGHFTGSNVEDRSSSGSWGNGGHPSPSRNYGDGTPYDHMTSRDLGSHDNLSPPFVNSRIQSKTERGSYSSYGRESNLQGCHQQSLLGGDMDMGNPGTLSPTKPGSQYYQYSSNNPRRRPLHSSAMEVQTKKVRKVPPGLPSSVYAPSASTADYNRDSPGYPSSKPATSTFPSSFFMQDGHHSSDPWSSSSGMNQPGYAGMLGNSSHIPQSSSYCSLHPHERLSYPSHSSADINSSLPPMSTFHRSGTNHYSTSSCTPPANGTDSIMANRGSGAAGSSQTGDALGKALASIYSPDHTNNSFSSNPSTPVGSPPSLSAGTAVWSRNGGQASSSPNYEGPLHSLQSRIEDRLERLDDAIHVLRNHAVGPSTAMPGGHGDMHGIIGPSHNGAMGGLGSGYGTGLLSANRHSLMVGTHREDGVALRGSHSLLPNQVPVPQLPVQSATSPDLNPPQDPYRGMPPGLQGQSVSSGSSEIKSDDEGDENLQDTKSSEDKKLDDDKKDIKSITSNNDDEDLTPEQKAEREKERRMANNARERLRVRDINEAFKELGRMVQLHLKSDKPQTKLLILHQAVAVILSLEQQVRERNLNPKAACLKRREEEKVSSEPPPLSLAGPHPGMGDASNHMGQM
The assay can be described thus: Inhibition of human GST tagged Tcf4/beta catenin interaction after 2 hrs using fluorescent AP Attophos substrate by ELISA analysis. Type of assay: protein-complex assay. Background: An ELISA detects its analyte on a solid surface through an enzyme-linked reagent.

Where [14] appears, read: Homo sapiens, HT-29, 48 h, read-out: IC50.

SMILES strings stand for the structures. Activity calls are given as the source filed them. No cut-off for these calls is given here.

Regarding `CN(Cc1ccccc1)CN1C(=O)/C(=N\NC(=O)c2ccccc2OCc2ccccc2)c2ccccc21`, the outcome in [1], in assay [6] and in assay [11] was Active. The outcome (in the assay on LoVo [2]; in assay [4]; in assay [7]; in assay [9]; with LoVo [10]) was inactive. Further, the Activity entry in assay [3] was “Dose-dependent effect”; in assay [5] it was 2.2%; in [8], 1.7%; in assay [12], 2%. Also, the 50% inhibitory concentration (IC50) result in the assay with HT-29 (ht-29) is “Not Active”; with LoVo [13], 24.9 µM.

Molecule `COc1c(CC(C)OC(=O)Oc2ccc(O)cc2)c2c3c(CC(C)OC(=O)c4ccccc4)c(OC)c(=O)c4c(O)cc(OC)c(c5c(OC)cc(O)c(c1=O)c52)c43` (centres undefined) yielded an IC50 against TCF4-CTNNB1 complex of 3.2 µM.

As for `CN(CCO)CN1C(=O)/C(=N\NC(=O)c2ccccc2OCc2ccccc2)c2ccccc21`, the IC50 result is “Not Active” with HT-29 (ht-29) and 22.4 µM in the assay on LoVo [13].

`COC(=O)c1c(C)cc2c(c1O)[C@@]1(O)C(=O)c3cc4c(c(O)c3C(=O)[C@]1(OC)[C@H](O)C2)C(=O)C=C(NC1O[C@H](C)[C@@H](OC)[C@H](O)[C@@H]1OC)C4=O` (some centres undefined) returned an IC50 at TCF4-CTNNB1 complex of 0.64 µM.

Turning to `CCCC(=O)c1cc2c(c(O)c1C)C(=O)C(=O)c1c(O)cccc1-2`, on TCF4-CTNNB1 complex, the IC50 came out at 2.4 µM.

`COc1c(CC(C)OC(=O)c2c(C)cc(O)cc2O)c2c3c(CC(C)OC(=O)c4c(C)cc(O)cc4O)c(OC)c(=O)c4c(O)cc(OC)c(c5c(OC)cc(O)c(c1=O)c52)c43` (centres undefined): the midpoint of inhibition against TCF4-CTNNB1 complex, the IC50, lay at 4.1 µM.

With `CCCCN(CCCC)CN1C(=O)/C(=N\NC(=O)c2ccccc2OCc2ccccc2)c2ccccc21`, the IC50 in the assay on HT-29 (setting [14]) amounted to 203 µM; in the assay on LoVo [13] it was 27.2 µM.

In the case of `O=C(N/N=C1\C(=O)N(CN2CCCCC2)c2ccccc21)c1ccccc1OCc1ccccc1`, the IC50 result with HT-29 (ht-29) was “Not Active”; in the assay with LoVo [13] it was 22.4 µM.

As for `CN(Cc1ccccc1)CN1C(=O)/C(=N\NC(=O)c2ccccc2OCc2ccc(Cl)cc2)c2ccccc21`, the IC50 entry was “Not Active” with HT-29 (ht-29) and 17.2 µM in the assay on LoVo [13].

Regarding `CCCN(CCC)CN1C(=O)/C(=N\NC(=O)c2ccccc2OCc2ccccc2)c2ccccc21`, the IC50 came to 95.5 µM in the assay with HT-29 (setting [14]) and 19.8 µM in the assay with LoVo [13].

On to `CCN(CC)CN1C(=O)/C(=N\NC(=O)c2ccccc2OCc2ccccc2)c2ccccc21`, for which the results for the IC50 with HT-29 (setting [14]) and with LoVo [13] were 84.8 µM and 14.8 µM, respectively.

Take `CN(C)CN1C(=O)/C(=N\NC(=O)c2ccccc2OCc2ccccc2)c2ccccc21`: the IC50 in the assay on HT-29 (setting [14]) is 48.8 µM; in the assay with LoVo [13], 12.9 µM.

Consider `O=C(N/N=C1\C(=O)N(CN2CCOCC2)c2ccccc21)c1ccccc1OCc1ccccc1`, for which the IC50 entry with HT-29 (ht-29) is “Not Active”; in the assay with LoVo [13], 16.3 µM.

One may read the IC50 as the midpoint of a concentration-inhibition curve.
